Patent US12493040B2, “Cancer detection method using sense of smell of nematode” (HIROTSU BIO SCIENCE INC., priority 2013, dated 2025)

Test system: RNAi-treated eri-1 (mg366) nematodes
Assay: RNAi screening of olfactory receptor genes: chemotaxis assay of RNAi-treated nematodes to odorants
Assay type: in vivo, Caenorhabditis elegans
Settings: low concentration of attractant
How it was run: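 Chemotaxis of adult RNAi-fed eri-1 (mg366) nematodes (30–50 per test) was measured toward low (1 μl, 10^−3 or 10^−4 dilution) or high (1 and 5 μl neat) odorant doses. Knockdown: 4 days feeding on E. coli from Ahringer library with IPTG and ampicillin. Differences called by z score at ±1.96, weaker cutoff ±0.96.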

CCC(C)=O [butanone]
chemotaxis index (Control nematodes): 0.65 ± 0.021
chemotaxis index (srh-10 RNAi-treated nematodes): −0.65
chemotaxis index (srh-11 RNAi-treated nematodes): −0.15
chemotaxis index (srh-15 RNAi-treated nematodes): 0.55
chemotaxis index (srh-16 RNAi-treated nematodes): 0.74
chemotaxis index (srh-18 RNAi-treated nematodes): 0.52
chemotaxis index (srh-19 RNAi-treated nematodes): 0.89
chemotaxis index (srh-22 RNAi-treated nematodes): 0.19
chemotaxis index (srh-23 RNAi-treated nematodes): 0.67
chemotaxis index (srh-24 RNAi-treated nematodes): 0.59
chemotaxis index (srh-25 RNAi-treated nematodes): 0.72
chemotaxis index (srh-27 RNAi-treated nematodes): 0.63
chemotaxis index (srh-28 RNAi-treated nematodes): 0.55
chemotaxis index (srh-36 RNAi-treated nematodes): 0.37
chemotaxis index (srh-37 RNAi-treated nematodes): 0.37
chemotaxis index (srh-39 RNAi-treated nematodes): 0.48
chemotaxis index (srh-40 RNAi-treated nematodes): 0.94
chemotaxis index (srh-41 RNAi-treated nematodes): 0.64
chemotaxis index (srh-44 RNAi-treated nematodes): 0.82
chemotaxis index (srh-45 RNAi-treated nematodes): 0.73
chemotaxis index (srh-46 RNAi-treated nematodes): 0.82
chemotaxis index (srh-48 RNAi-treated nematodes): 0.55
chemotaxis index (srh-49 RNAi-treated nematodes): 0.80
chemotaxis index (srh-50 RNAi-treated nematodes): 0.87
chemotaxis index (srh-51 RNAi-treated nematodes): 0.70
chemotaxis index (srh-52 RNAi-treated nematodes): 0.69
chemotaxis index (srh-55 RNAi-treated nematodes): 0.43
chemotaxis index (srh-59 RNAi-treated nematodes): 0.51
chemotaxis index (srh-60 RNAi-treated nematodes): 0.79
chemotaxis index (srh-61 RNAi-treated nematodes): 0.74
chemotaxis index (srh-67 RNAi-treated nematodes): 0.85
chemotaxis index (srh-68 RNAi-treated nematodes): 0.67
chemotaxis index (srh-69 RNAi-treated nematodes): 0.66
chemotaxis index (srh-70 RNAi-treated nematodes): 0.43
chemotaxis index (srh-71 RNAi-treated nematodes): 0.76
chemotaxis index (srh-72 RNAi-treated nematodes): 0.58
chemotaxis index (srh-74 RNAi-treated nematodes): 0.76
chemotaxis index (srh-75 RNAi-treated nematodes): 0.76
chemotaxis index (srh-77 RNAi-treated nematodes): 0.70
chemotaxis index (srh-79 RNAi-treated nematodes): 0.58
chemotaxis index (srh-80 RNAi-treated nematodes): 0.64
chemotaxis index (srh-82 RNAi-treated nematodes): 0.79
chemotaxis index (srh-83 RNAi-treated nematodes): 0.71
chemotaxis index (srh-97 RNAi-treated nematodes): 0.80
chemotaxis index (srh-99 RNAi-treated nematodes): 0.75
chemotaxis index (srh-100 RNAi-treated nematodes): 0.80
chemotaxis index (srh-104 RNAi-treated nematodes): 0.48
chemotaxis index (srh-105 RNAi-treated nematodes): 0.76
chemotaxis index (srh-109 RNAi-treated nematodes): 0.89
chemotaxis index (srh-111 RNAi-treated nematodes): 0.59
chemotaxis index (srh-113 RNAi-treated nematodes): 0.30
chemotaxis index (srh-115 RNAi-treated nematodes): 0.70
chemotaxis index (srh-116 RNAi-treated nematodes): 0.56
chemotaxis index (srh-118 RNAi-treated nematodes): 0.60
chemotaxis index (srh-119 RNAi-treated nematodes): 0.50
chemotaxis index (srh-120 RNAi-treated nematodes): 0.78
chemotaxis index (srh-122 RNAi-treated nematodes): 0.58
chemotaxis index (srh-123 RNAi-treated nematodes): 0.84
chemotaxis index (srh-125 RNAi-treated nematodes): 0.76
chemotaxis index (srh-128 RNAi-treated nematodes): 0.69
chemotaxis index (srh-129 RNAi-treated nematodes): 0.63
chemotaxis index (srh-130 RNAi-treated nematodes): 0.82
chemotaxis index (srh-214 RNAi-treated nematodes): 0.85
chemotaxis index (srh-216 RNAi-treated nematodes): 0.86
chemotaxis index (srh-217 RNAi-treated nematodes): 0.69
chemotaxis index (srh-220 RNAi-treated nematodes): 0.81
chemotaxis index (srh-222 RNAi-treated nematodes): 0.62
chemotaxis index (srh-223 RNAi-treated nematodes): 0.88
chemotaxis index (srh-227 RNAi-treated nematodes): 0.37
chemotaxis index (srh-229 RNAi-treated nematodes): 0.60
chemotaxis index (srh-233 RNAi-treated nematodes): 0.50
chemotaxis index (srh-235 RNAi-treated nematodes): 0.76
chemotaxis index (srh-236 RNAi-treated nematodes): 0.71
chemotaxis index (srh-239 RNAi-treated nematodes): 0.59
chemotaxis index (srh-241 RNAi-treated nematodes): 0.63
chemotaxis index (srh-243 RNAi-treated nematodes): 0.72
chemotaxis index (srh-244 RNAi-treated nematodes): 0.73
chemotaxis index (srh-247 RNAi-treated nematodes): 0.85
chemotaxis index (srh-250 RNAi-treated nematodes): 0.79
chemotaxis index (srh-251 RNAi-treated nematodes): 0.92
chemotaxis index (srh-252 RNAi-treated nematodes): 0.86
chemotaxis index (srh-258 RNAi-treated nematodes): 0.56
chemotaxis index (srh-261 RNAi-treated nematodes): 0.60
chemotaxis index (srh-264 RNAi-treated nematodes): 0.56
chemotaxis index (srh-266 RNAi-treated nematodes): −0.31
chemotaxis index (srh-274 RNAi-treated nematodes): −0.59
chemotaxis index (srh-275 RNAi-treated nematodes): −0.29
chemotaxis index (srh-276 RNAi-treated nematodes): 0.30
chemotaxis index (srh-277 RNAi-treated nematodes): −0.09
chemotaxis index (srh-279 RNAi-treated nematodes): 0.89
chemotaxis index (srh-281 RNAi-treated nematodes): 0.49
chemotaxis index (srh-282 RNAi-treated nematodes): 0.80
chemotaxis index (srh-283 RNAi-treated nematodes): 0.65
chemotaxis index (srh-284 RNAi-treated nematodes): 0.73
chemotaxis index (srh-291 RNAi-treated nematodes): 0.86
chemotaxis index (srh-292 RNAi-treated nematodes): 0.80
chemotaxis index (srh-293 RNAi-treated nematodes): 0.75
chemotaxis index (srh-297 RNAi-treated nematodes): 0.84
chemotaxis index (srh-298 RNAi-treated nematodes): 0.65
chemotaxis index (srh-308 RNAi-treated nematodes): 0.04
